In the NIST ThermoML archive (doi:10.1016/j.jct.2012.03.031):

Assay: molar heat capacity at constant pressure
Conditions: 101.33 kPa

CCCCc1ccc(C(=O)Oc2ccc(C#N)c(F)c2)cc1 [4-cyano-3-fluorophenyl 4-butylbenzoate]
Conditions	molar heat capacity at constant pressure [J/K/mol]
141.25 K, Crystal 1, Small (less than 1 g) adiabatic calorimetry	201.94
142.25 K, Crystal 1, Small (less than 1 g) adiabatic calorimetry	202.81
142.97 K, Crystal 2, Small (less than 1 g) adiabatic calorimetry	216.4
143.16 K, Crystal 1, Small (less than 1 g) adiabatic calorimetry	203.97
144.71 K, Crystal 1, Small (less than 1 g) adiabatic calorimetry	205.52
145.06 K, Crystal 1, Small (less than 1 g) adiabatic calorimetry	206.05
145.3 K, Crystal 2, Small (less than 1 g) adiabatic calorimetry	219.62
146.94 K, Crystal 1, Small (less than 1 g) adiabatic calorimetry	208.17
147.18 K, Crystal 1, Small (less than 1 g) adiabatic calorimetry	208.18
147.65 K, Crystal 2, Small (less than 1 g) adiabatic calorimetry	221.78
148.81 K, Crystal 1, Small (less than 1 g) adiabatic calorimetry	210.18
149.66 K, Crystal 1, Small (less than 1 g) adiabatic calorimetry	210.87
150 K, Crystal 1, Vacuum adiabatic calorimetry	211.22
150 K, Crystal 2, Small (less than 1 g) adiabatic calorimetry	226.25
150 K, Crystal 2, Vacuum adiabatic calorimetry	226.24
150.66 K, Crystal 1, Small (less than 1 g) adiabatic calorimetry	212.24
152.15 K, Crystal 1, Small (less than 1 g) adiabatic calorimetry	213.41
152.37 K, Crystal 2, Small (less than 1 g) adiabatic calorimetry	229.33
152.5 K, Crystal 1, Small (less than 1 g) adiabatic calorimetry	214.29
154.33 K, Crystal 1, Small (less than 1 g) adiabatic calorimetry	216.32
154.65 K, Crystal 1, Small (less than 1 g) adiabatic calorimetry	216.65
154.75 K, Crystal 2, Small (less than 1 g) adiabatic calorimetry	232.46
156.14 K, Crystal 1, Small (less than 1 g) adiabatic calorimetry	218.31
157.14 K, Crystal 2, Small (less than 1 g) adiabatic calorimetry	235.73
157.17 K, Crystal 1, Small (less than 1 g) adiabatic calorimetry	219.23
157.94 K, Crystal 1, Small (less than 1 g) adiabatic calorimetry	220.33
159.54 K, Crystal 2, Small (less than 1 g) adiabatic calorimetry	238.88
159.69 K, Crystal 1, Small (less than 1 g) adiabatic calorimetry	222.08
159.74 K, Crystal 1, Small (less than 1 g) adiabatic calorimetry	222.37
160 K, Crystal 1, Vacuum adiabatic calorimetry	222.43
160 K, Crystal 2, Vacuum adiabatic calorimetry	239.47
161.51 K, Crystal 1, Small (less than 1 g) adiabatic calorimetry	224.35
161.96 K, Crystal 2, Small (less than 1 g) adiabatic calorimetry	242.01
162.23 K, Crystal 1, Small (less than 1 g) adiabatic calorimetry	224.93
163.28 K, Crystal 1, Small (less than 1 g) adiabatic calorimetry	226.23
164.39 K, Crystal 2, Small (less than 1 g) adiabatic calorimetry	245.1
164.77 K, Crystal 1, Small (less than 1 g) adiabatic calorimetry	227.75
164.86 K, Crystal 1, Small (less than 1 g) adiabatic calorimetry	227.97
166.27 K, Crystal 1, Small (less than 1 g) adiabatic calorimetry	229.58
166.83 K, Crystal 2, Small (less than 1 g) adiabatic calorimetry	248.12
167.33 K, Crystal 1, Small (less than 1 g) adiabatic calorimetry	230.64
167.66 K, Crystal 1, Small (less than 1 g) adiabatic calorimetry	231.21
169.05 K, Crystal 1, Small (less than 1 g) adiabatic calorimetry	232.8
169.28 K, Crystal 2, Small (less than 1 g) adiabatic calorimetry	251.2
169.91 K, Crystal 1, Small (less than 1 g) adiabatic calorimetry	233.56
170 K, Crystal 1, Vacuum adiabatic calorimetry	233.66
170 K, Crystal 2, Vacuum adiabatic calorimetry	252.09
170.44 K, Crystal 1, Small (less than 1 g) adiabatic calorimetry	234.45
171.75 K, Crystal 2, Small (less than 1 g) adiabatic calorimetry	254.25
171.81 K, Crystal 1, Small (less than 1 g) adiabatic calorimetry	235.91
172.49 K, Crystal 1, Small (less than 1 g) adiabatic calorimetry	236.43
173.18 K, Crystal 1, Small (less than 1 g) adiabatic calorimetry	237.49
174.23 K, Crystal 2, Small (less than 1 g) adiabatic calorimetry	257.27
174.55 K, Crystal 1, Small (less than 1 g) adiabatic calorimetry	239.04
175.09 K, Crystal 1, Small (less than 1 g) adiabatic calorimetry	239.43
175.91 K, Crystal 1, Small (less than 1 g) adiabatic calorimetry	240.69
176.72 K, Crystal 2, Small (less than 1 g) adiabatic calorimetry	260.38
177.26 K, Crystal 1, Small (less than 1 g) adiabatic calorimetry	242.06
177.69 K, Crystal 1, Small (less than 1 g) adiabatic calorimetry	242.43
178.61 K, Crystal 1, Small (less than 1 g) adiabatic calorimetry	243.74
179.23 K, Crystal 2, Small (less than 1 g) adiabatic calorimetry	263.65
179.95 K, Crystal 1, Small (less than 1 g) adiabatic calorimetry	245.46
180 K, Crystal 1, Vacuum adiabatic calorimetry	245.15
180 K, Crystal 2, Vacuum adiabatic calorimetry	264.63
180.31 K, Crystal 1, Small (less than 1 g) adiabatic calorimetry	245.52
181.28 K, Crystal 1, Small (less than 1 g) adiabatic calorimetry	246.9
181.74 K, Crystal 2, Small (less than 1 g) adiabatic calorimetry	266.86
182.62 K, Crystal 1, Small (less than 1 g) adiabatic calorimetry	248.29
182.95 K, Crystal 1, Small (less than 1 g) adiabatic calorimetry	248.51
183.94 K, Crystal 1, Small (less than 1 g) adiabatic calorimetry	249.95
184.27 K, Crystal 2, Small (less than 1 g) adiabatic calorimetry	270.08
185.26 K, Crystal 1, Small (less than 1 g) adiabatic calorimetry	251.54
185.59 K, Crystal 1, Small (less than 1 g) adiabatic calorimetry	251.57
186.58 K, Crystal 1, Small (less than 1 g) adiabatic calorimetry	253
186.82 K, Crystal 2, Small (less than 1 g) adiabatic calorimetry	273.41
187.89 K, Crystal 1, Small (less than 1 g) adiabatic calorimetry	254.44
188.25 K, Crystal 1, Small (less than 1 g) adiabatic calorimetry	254.7
189.2 K, Crystal 1, Small (less than 1 g) adiabatic calorimetry	256.01
189.37 K, Crystal 2, Small (less than 1 g) adiabatic calorimetry	276.6
190 K, Crystal 1, Vacuum adiabatic calorimetry	256.78
190 K, Crystal 2, Vacuum adiabatic calorimetry	277.35
190.5 K, Crystal 1, Small (less than 1 g) adiabatic calorimetry	257.62
190.92 K, Crystal 1, Small (less than 1 g) adiabatic calorimetry	257.87
191.8 K, Crystal 1, Small (less than 1 g) adiabatic calorimetry	259.15
191.94 K, Crystal 2, Small (less than 1 g) adiabatic calorimetry	279.67
193.09 K, Crystal 1, Small (less than 1 g) adiabatic calorimetry	260.81
193.6 K, Crystal 1, Small (less than 1 g) adiabatic calorimetry	261.01
194.38 K, Crystal 1, Small (less than 1 g) adiabatic calorimetry	262.19
194.52 K, Crystal 2, Small (less than 1 g) adiabatic calorimetry	282.72
195.67 K, Crystal 1, Small (less than 1 g) adiabatic calorimetry	263.76
196.29 K, Crystal 1, Small (less than 1 g) adiabatic calorimetry	264.21
196.94 K, Crystal 1, Small (less than 1 g) adiabatic calorimetry	265.24
197.12 K, Crystal 2, Small (less than 1 g) adiabatic calorimetry	285.61
198.22 K, Crystal 1, Small (less than 1 g) adiabatic calorimetry	266.88
199 K, Crystal 1, Small (less than 1 g) adiabatic calorimetry	267.79
199.49 K, Crystal 1, Small (less than 1 g) adiabatic calorimetry	268.59
199.73 K, Crystal 2, Small (less than 1 g) adiabatic calorimetry	288.75
200 K, Crystal 1, Vacuum adiabatic calorimetry	269.03
200 K, Crystal 2, Vacuum adiabatic calorimetry	289.06
200.76 K, Crystal 1, Small (less than 1 g) adiabatic calorimetry	270.11
201.72 K, Crystal 1, Small (less than 1 g) adiabatic calorimetry	271.16
202.02 K, Crystal 1, Small (less than 1 g) adiabatic calorimetry	271.81
202.35 K, Crystal 2, Small (less than 1 g) adiabatic calorimetry	291.75
203.27 K, Crystal 1, Small (less than 1 g) adiabatic calorimetry	273.36
204.44 K, Crystal 1, Small (less than 1 g) adiabatic calorimetry	274.73
204.53 K, Crystal 1, Small (less than 1 g) adiabatic calorimetry	275.01
204.98 K, Crystal 2, Small (less than 1 g) adiabatic calorimetry	294.58
205.77 K, Crystal 1, Small (less than 1 g) adiabatic calorimetry	276.69
207.02 K, Crystal 1, Small (less than 1 g) adiabatic calorimetry	278.34
207.18 K, Crystal 1, Small (less than 1 g) adiabatic calorimetry	278.39
207.63 K, Crystal 2, Small (less than 1 g) adiabatic calorimetry	297.45
208.26 K, Crystal 1, Small (less than 1 g) adiabatic calorimetry	279.95
209.49 K, Crystal 1, Small (less than 1 g) adiabatic calorimetry	281.68
209.93 K, Crystal 1, Small (less than 1 g) adiabatic calorimetry	282.11
210 K, Crystal 1, Vacuum adiabatic calorimetry	282.2
210 K, Crystal 2, Vacuum adiabatic calorimetry	300.06
210.29 K, Crystal 2, Small (less than 1 g) adiabatic calorimetry	300.38
210.72 K, Crystal 1, Small (less than 1 g) adiabatic calorimetry	283.2
211.95 K, Crystal 1, Small (less than 1 g) adiabatic calorimetry	284.9
212.69 K, Crystal 1, Small (less than 1 g) adiabatic calorimetry	285.7
212.97 K, Crystal 2, Small (less than 1 g) adiabatic calorimetry	303.2
213.18 K, Crystal 1, Small (less than 1 g) adiabatic calorimetry	286.42
214.4 K, Crystal 1, Small (less than 1 g) adiabatic calorimetry	288
215.46 K, Crystal 1, Small (less than 1 g) adiabatic calorimetry	289.41
215.62 K, Crystal 1, Small (less than 1 g) adiabatic calorimetry	289.65
215.65 K, Crystal 2, Small (less than 1 g) adiabatic calorimetry	306.03
216.83 K, Crystal 1, Small (less than 1 g) adiabatic calorimetry	291.26
218.04 K, Crystal 1, Small (less than 1 g) adiabatic calorimetry	292.84
218.24 K, Crystal 1, Small (less than 1 g) adiabatic calorimetry	293.08
218.35 K, Crystal 2, Small (less than 1 g) adiabatic calorimetry	308.99
219.24 K, Crystal 1, Small (less than 1 g) adiabatic calorimetry	294.47
220 K, Crystal 1, Vacuum adiabatic calorimetry	295.42
220 K, Crystal 2, Vacuum adiabatic calorimetry	310.55
220.45 K, Crystal 1, Small (less than 1 g) adiabatic calorimetry	296.21
221.03 K, Crystal 1, Small (less than 1 g) adiabatic calorimetry	296.79
